Measurements from PubChem BioAssay (NCI).
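Interpolation was linear, between the two tested concentrations surrounding the appropriate level; five concentrations were tested over 48 hours in 96-well plates. At the GI50, growth is halved. The concentration for full growth arrest is given as TGI.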

What was measured:
Assay in all cases: NCI tumour cell line growth inhibition, 48 h
[1] = tested on: 786-0 renal
[2] = tested on: MOLT-4 leukemia
[3] = tested on: HL-60(TB) leukemia
[4] = tested on: EKVX NSCLC
[5] = tested on: MALME-3M melanoma
[6] = tested on: HCC-2998 colon
[7] = tested on: HOP-92 NSCLC
[8] = tested on: SR leukemia
[9] = tested on: UACC-62 melanoma
[10] = tested on: OVCAR-8 ovarian

| SMILES | TGI [1] | TGI [2] | TGI [3] | TGI [4] | TGI [5] | TGI [6] | TGI [7] | TGI [8] | TGI [9] | TGI [10] | GI50 [1] | GI50 [2] | GI50 [3] | GI50 [4] | GI50 [5] | GI50 [6] | GI50 [7] | GI50 [8] | GI50 [9] | GI50 [10] |
| --- | --- | --- | --- | --- | --- | --- | --- | --- | --- | --- | --- | --- | --- | --- | --- | --- | --- | --- | --- | --- |
| CCCCCCCCCCCCCCCCCCCCCC(=O)Nc1ccn(C2OC(CO)C(O)C2O)c(=O)n1 (stereo not given) | > 100 µM | > 37.1 µM | > 100 µM | > 100 µM | > 100 µM | > 100 µM | > 100 µM | 26.8 µM | > 100 µM | > 100 µM | – | – | – | – | – | – | – | – | – | – |
| CC(C)CC1=[N+]=C(NC#N)N=C(CCC(=O)Nc2ccccc2[N+](=O)[O-])C1 | > 100 µM | > 100 µM | > 100 µM | > 100 µM | > 100 µM | > 100 µM | > 100 µM | > 100 µM | > 100 µM | > 100 µM | – | – | – | – | – | – | – | – | – | – |
| CSc1nc2c(nc(N)n2C2OCC(O)C(O)C2O)c(=O)n1C (stereo not given) | > 100 µM | > 100 µM | > 100 µM | > 100 µM | > 100 µM | > 100 µM | > 100 µM | > 100 µM | > 100 µM | > 100 µM | – | – | – | – | – | – | – | – | – | – |
| COc1ccc2c3c(c(=O)n(C)c2c1OC)C=CC(C)(C)O3 | > 100 µM | 54.7 µM | 29.8 µM | > 100 µM | > 100 µM | > 100 µM | 76 µM | 24.9 µM | > 100 µM | > 100 µM | – | – | – | – | – | – | – | – | – | – |
| CN(C)C(=S)N=Nc1c(O)[nH]c2ccccc12 | 12.2 µM | > 49.7 µM | 7.24 µM | 11 µM | 14.2 µM | 17.2 µM | 15.9 µM | 9.38 µM | 4.56 µM | 26 µM | 0.891 µM | 0.619 µM | 1.32 µM | 0.397 µM | 1.75 µM | 1.54 µM | 0.761 µM | 0.429 µM | 0.578 µM | 0.525 µM |
